Patent US8383629B2, “Inhibitors of 11β-hydroxysteroid dehydrogenase type 1” (Vitae Pharmaceuticals, Inc., priority 2008, dated 2013)

Target: T1, human 11β-HSD1 (Homo sapiens, UniProt P28845)
T1 construct: expressed in transfected cells; host or cells: CHO cells (microsomes)
Test: Inhibition of microsomal preparation of 11β-HSD1 (SPA, Biological Test Example 1)
Type: biochemical
Settings: for inhibition at 0.111 µM: 111 nM; for IC50: microsomes from CHO cells overexpressing human 11β-HSD1, read-out: IC50 Range; for inhibition at 0.1 µM: 100 nM
Description: The inhibition of microsomal preparation of 11β-HSD1 by compounds of the invention was measured essentially as previously described (K. Solly, S. S. Mundt, H. J. Zokian, G. J. Ding, A. Hermanowski-Vosatka, B. Strulovici, and W. Zheng, High-Throughput Screening of 11-Beta-Hydroxysteroid Dehydrogenase Type 1 in Scintillation Proximity Assay Format. Assay Drug Dev Technol 3 (2005) 377-384). All reactions were carried out at rt in 96 well clear flexible PET Microbeta plates (PerkinElmer). The assay begins by dispensing 49 μl of substrate solution (50 mM HEPES, pH 7.4, 100 mM KCl, 5 mM NaCl, 2 mM MgCl2, 2 mM NADPH and 160 nM [^3H]cortisone (1 Ci/mmol)) and mixing in 1 μL of the test compounds in DMSO previously diluted in half-log increments (8 points) starting at 0.1 mM. After a 10 minute pre-incubation, 50 μL of enzyme solution containing microsomes isolated from CHO cells overexpressing human 11β-HSD1 (10-20 μg/ml of total protein) was added, and the plates were incubated for 90 minutes at rt. The reaction was stopped by adding 50 μl of the SPA beads suspension containing 10 μM 18β-glycyrrhetinic acid, 5 mg/ml protein A coated YSi SPA beads (GE Healthcare) and 3.3 μg/ml of anti-cortisol antibody (East Coast Biologics) in Superblock buffer (Bio-Rad). The plates were shaken for 120 minutes at rt, and the SPA signal corresponding to [^3H]cortisol was measured on a Microbeta plate reader.

T1 sequence (P28845 whole entry): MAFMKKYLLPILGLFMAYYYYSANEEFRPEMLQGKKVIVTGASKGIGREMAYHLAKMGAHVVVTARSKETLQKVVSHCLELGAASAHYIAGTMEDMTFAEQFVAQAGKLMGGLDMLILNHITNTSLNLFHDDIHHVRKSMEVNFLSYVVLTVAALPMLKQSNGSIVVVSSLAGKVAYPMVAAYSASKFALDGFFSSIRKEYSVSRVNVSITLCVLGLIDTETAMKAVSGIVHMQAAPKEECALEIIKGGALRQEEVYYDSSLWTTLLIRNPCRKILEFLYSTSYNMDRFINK

Structure (SMILES)	inhibition at 0.111 µM [%]	IC50 [nM]	inhibition at 0.1 µM [%]
O=C(/C=C/c1ccccc1C(F)(F)F)N1CCC2(CC1)CNCc1ccccc12 [EXAMPLE 21, (E)-1-(2,3-dihydro-1H-spiro[isoquinoline-4,4′-piperidine]-1′-yl)-3-(2-(trifluoromethyl)phenyl)prop-2-en-1-one]	87.4	< 100	–
CS(=O)(=O)N1Cc2ccccc2C2(CCN(C(=O)/C=C/c3ccccc3C(F)(F)F)CC2)C1 [EXAMPLE 22, (E)-1-(2-(methylsulfonyl)-2,3-dihydro-1H-spiro[isoquinoline-4,4′-piperidine]-1′-yl)-3-(2-(trifluoromethyl)phenyl)prop-2-en-1-one]	95.3	< 100	–
CC(=O)N1Cc2ccccc2C2(CCN(C(=O)/C=C/c3ccccc3C(F)(F)F)CC2)C1 [EXAMPLE 23, (E)-1-(2-acetyl-2,3-dihydro-1H-spiro[isoquinoline-4,4′-piperidine]-1′-yl)-3-(2-(trifluoromethyl)phenyl)prop-2-en-1-one]	94.9	< 100	–
CN1C(=O)c2ccccc2C12CCN(C(=O)/C=C/c1ccccc1C(F)(F)F)CC2 [EXAMPLE 24, (E)-2-methyl-1′-(3-(2-(trifluoromethyl)phenyl)acryloyl)spiro[isoindoline-1,4′-piperidin]-3-one]	82.3	< 100	–
CN1C(=O)c2cccc(Cl)c2C12CCN(C(=O)/C=C/c1ccccc1C(F)(F)F)CC2 [EXAMPLE 25, (E)-7-chloro-2-methyl-1′-(3-(2-(trifluoromethyl)phenyl)acryloyl)spiro[isoindoline-1,4′-piperidin]-3-one]	95.3	< 100	95.5
CN1C(=O)c2cccc(Cl)c2C12CCN(C(=O)/C=C/c1c(Cl)cccc1Cl)CC2 [EXAMPLE 26, (E)-7-chloro-1′-(3-(2,6-dichlorophenyl)acryloyl)-2-methylspiro[isoindoline-1,4′-piperidin]-3-one]	79	< 100	–
O=C1NC2(CCN(C(=O)/C=C/c3ccccc3C(F)(F)F)CC2)c2c(Cl)cccc21 [EXAMPLE 27, (E)-7-chloro-1′-(3-(2-(trifluoromethyl)phenyl)acryloyl)spiro[isoindoline-1,4′-piperidin]-3-one]	89.8	< 100	–
O=C1NC2(CCN(C(=O)/C=C/c3ccccc3C(F)(F)F)CC2)c2c(Br)cccc21 [EXAMPLE 28, (E)-7-bromo-1′-(3-(2-(trifluoromethyl)phenyl)acryloyl)spiro[isoindoline-1,4′-piperidin]-3-one]	92.7	< 100	–
O=C1NC2(CCN(C(=O)/C=C/c3ccccc3C(F)(F)F)CC2)c2c(Cl)cc(Cl)cc21 [EXAMPLE 29, (E)-5,7-dichloro-1′-(3-(2-(trifluoromethyl)phenyl)acryloyl)spiro[isoindoline-1,4′-piperidin]-3-one]	94.2	< 100	–
COc1ccc2c(c1)CCNC21CCN(C(=O)/C=C/c2ccccc2C(F)(F)F)CC1 [EXAMPLE 30, (E)-1-(6-methoxy-3,4-dihydro-2H-spiro[isoquinoline-1,4′-piperidine]-1′-yl)-3-(2-(trifluoromethyl)phenyl)prop-2-en-1-one]	94.6	< 100	90.3
CN1C(=O)C2(CCN(C(=O)/C=C/c3ccccc3C(F)(F)F)CC2)c2ccccc21 [EXAMPLE 31, (E)-1-methyl-1′-(3-(2-(trifluoromethyl)phenyl)acryloyl)spiro[indoline-3,4′-piperidin]-2-one]	–	< 100	99.9
COC(=O)c1ccc2c(c1)C1(CCN(C(=O)/C=C/c3ccccc3C(F)(F)F)CC1)C(=O)N2C [EXAMPLE 32, (E)-methyl 1-methyl-2-oxo-1′-(3-(2-(trifluoromethyl)phenyl)acryloyl)spiro[indoline-3,4′-piperidine]-5-carboxylate]	83.4	< 100	–
CN1C(=O)C2(CCN(C(=O)/C=C/c3ccccc3C(F)(F)F)CC2)c2cc(C(=O)O)ccc21 [EXAMPLE 33, (E)-1-methyl-2-oxo-1′-(3-(2-(trifluoromethyl)phenyl)acryloyl)spiro[indoline-3,4′-piperidine]-5-carboxylic acid]	31.5	100 to 1000	–
CN(C)C(=O)c1ccc2c(c1)C1(CCN(C(=O)/C=C/c3ccccc3C(F)(F)F)CC1)C(=O)N2C [EXAMPLE 34, (E)-N,N,1-trimethyl-2-oxo-1′-(3-(2-(trifluoromethyl)phenyl)acryloyl)spiro[indoline-3,4′-piperidine]-5-carboxamide]	38.2	100 to 1000	–
CN1C(=O)C2(CCN(C(=O)/C=C/c3ccccc3C(F)(F)F)CC2)c2cc(C(N)=O)ccc21 [EXAMPLE 35, (E)-1-methyl-2-oxo-1′-(3-(2-(trifluoromethyl)phenyl)acryloyl)spiro[indoline-3,4′-piperidine]-5-carboxamide]	41.4	100 to 1000	–
CN1C(=O)C2(CCN(C(=O)/C=C/c3ccccc3C(F)(F)F)CC2)c2cc(C(=O)NCCO)ccc21 [EXAMPLE 36, (E)-N-(2-hydroxyethyl)-1-methyl-2-oxo-1′-(3-(2-(trifluoromethyl)phenyl)acryloyl)spiro[indoline-3,4′-piperidine]-5-carboxamide]	0.6	100 to 1000	–
CN1CCN(C(=O)c2ccc3c(c2)C2(CCN(C(=O)/C=C/c4ccccc4C(F)(F)F)CC2)C(=O)N3C)CC1 [EXAMPLE 37, (E)-1-methyl-5-(4-methylpiperazine-1-carbonyl)-1′-(3-(2-(trifluoromethyl)phenyl)acryloyl)spiro[indoline-3,4′-piperidin]-2-one]	7.1	100 to 1000	–
CNC(=O)c1ccc2c(c1)C1(CCN(C(=O)/C=C/c3ccccc3C(F)(F)F)CC1)C(=O)N2C [EXAMPLE 38, (E)-N,1-dimethyl-2-oxo-1′-(3-(2-(trifluoromethyl)phenyl)acryloyl)spiro[indoline-3,4′-piperidine]-5-carboxamide]	21.3	100 to 1000	–
CN1C(=O)C2(CCN(C(=O)/C=C/c3ccccc3C(F)(F)F)CC2)c2cc(C#N)ccc21 [EXAMPLE 39, (E)-1-methyl-2-oxo-1′-(3-(2-(trifluoromethyl)phenyl)acryloyl)spiro[indoline-3,4′-piperidine]-5-carbonitrile]	64.8	< 100	–
CCN1C(=O)C2(CCN(C(=O)/C=C/c3ccccc3C(F)(F)F)CC2)c2cc(C(=O)OC)ccc21 [EXAMPLE 40, (E)-methyl 1-ethyl-2-oxo-1′-(3-(2-(trifluoromethyl)phenyl)acryloyl)spiro[indoline-3,4′-piperidine]-5-carboxylate]	71.2	< 100	–
O=C(/C=C/c1ccccc1C(F)(F)F)N1CCC2(CC1)C(=O)Nc1ccc(F)cc12 [EXAMPLE 41, (E)-5-fluoro-1′-(3-(2-(trifluoromethyl)phenyl)acryloyl)spiro[indoline-3,4′-piperidin]-2-one]	–	< 100	91.2
O=C1Cc2ccccc2C2(CCN(C(=O)/C=C/c3ccccc3C(F)(F)F)CC2)N1 [EXAMPLE 42, (E)-1′-(3-(2-(trifluoromethyl)phenyl)acryloyl)-2H-spiro[isoquinoline-1,4′-piperidin]-3(4H)-one]	79.3	< 100	–
CC1(C)NC(=O)C2(CCN(C(=O)/C=C/c3ccccc3C(F)(F)F)CC2)c2ccccc21 [EXAMPLE 43, (E)-1,1-dimethyl-1′-(3-(2-(trifluoromethyl)phenyl)acryloyl)-1H-spiro[isoquinoline-4,4′-piperidin]-3(2H)-one]	–	< 100	90.6
COc1ccc2c(c1)CCNC21CCN(C(=O)Cc2ccccc2C(F)(F)F)CC1 [EXAMPLE 44, 1-(6-methoxy-3,4-dihydro-2H-spiro[isoquinoline-1,4′-piperidine]-1′-yl)-2-(2-(trifluoromethyl)phenyl)ethanone]	69.9	< 100	–
O=C1NC2(CCN(C(=O)Cc3ccccc3C(F)(F)F)CC2)c2c(Cl)cccc21 [EXAMPLE 45, 7-chloro-1′-(2-(2-(trifluoromethyl)phenyl)acetyl)spiro[isoindoline-1,4′-piperidin]-3-one]	43.2	100 to 1000	–
O=C(Cc1ccccc1C(F)(F)F)N1CCC2(CC1)C(=O)Nc1ccccc12 [EXAMPLE 47, 1′-(2-(2-(trifluoromethyl)phenyl)acetyl)spiro[indoline-3,4′-piperidin]-2-one]	83.3	< 100	–
CN1C(=O)C2(CCN(C(=O)Cc3ccccc3C(F)(F)F)CC2)c2ccccc21 [EXAMPLE 48, 1-methyl-1′-(2-(2-(trifluoromethyl)phenyl)acetyl)spiro[indoline-3,4′-piperidin]-2-one]	86.3	< 100	80.6
O=C1NC2(CCN(C(=O)Cc3ccccc3C(F)(F)F)CC2)c2c(Br)cccc21 [EXAMPLE 49, 7-bromo-1′-(2-(2-(trifluoromethyl)phenyl)acetyl)spiro[isoindoline-1,4′-piperidin]-3-one]	49.2	100 to 1000	–
